PubChem BioAssay (NCI)
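Dose response: 5 concentrations. Exposure: 48 h. Format: 96-well plates. Endpoint: linear interpolation; highest concentration if not reached. At the GI50, growth is halved. TGI: total growth inhibition.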

Each molecule was assayed on A549 NSCLC (assay: growth of human tumour cells (NCI), 48 h).

Going from `Cc1cc(Cl)ccc1NC(=O)C(=O)Cc1nc2ccccc2o1` to `CCn1c2ccccc2c2cc(NC(=O)Nc3ccc([N+](=O)[O-])cc3C)ccc21`, the TGI falls from over 100 µM to 15.6 µM.

`OCC1OC(c2nc(C3=NCCCN3)cs2)C(O)C1O` (stereo unspecified) and `O=c1ccn([C@H]2CSC[C@@H](CO)C2)c(=O)[nH]1` cannot be ordered by TGI: over 100 µM for the first, over 100 µM for the second.

`CCC(C)COC(=O)c1ccc(N=Cc2ccc(C=Nc3ccc(C(=O)OCC(C)CC)cc3)cc2)cc1` (stereo unspecified) and `Cc1ccc(/C=C/C(=O)c2sc(-c3nc(C)c(C(=O)/C=C/c4ccc(C)cc4)s3)nc2C)cc1` cannot be ordered by TGI: over 100 µM for the first, over 100 µM for the second.

`COc1cc(F)ccc1-c1ncnc(Nc2cccc(CS(C)(=N)=O)c2)n1` (stereo unspecified) and `COc1cc(-n2cc(-c3ccc(F)cc3)[nH]c2=O)cc(OC)c1OC` cannot be ordered by TGI: over 100 µM for the first, over 100 µM for the second.

Going from `Cc1cc(N(CCC#N)CCC#N)ccc1N=Nc1ccc(C(=O)O)cc1` to `N#CC(C(=O)C(=O)C(C#N)c1ccc(Br)cc1)c1ccc(Br)cc1` (stereo unspecified), the TGI falls from over 100 µM to 46.5 µM.

First: [Cl][Hg][c]1cc[c]([Hg][Cl])o1
Second: COc1cccc(C2=NC(C(C)C)CO2)c1 (stereo unspecified)
The TGI of the first is lower: 53.5 µM for the first, over 100 µM for the second.

`CN(C)CC1CCCC/C1=N/OC(=O)c1ccc(Cl)cc1` (stereo unspecified) and `COc1ccc(CC2NCCc3c2[nH]c2ccccc32)cc1` (stereo unspecified) cannot be ordered by TGI: over 100 µM for the first, over 100 µM for the second.

`CCOC(=O)C(=[N+]=[N-])[Si](C)(C)C` and `Cc1ccc(NC(=O)CCc2cc(C(C)(C)C)nc(=S)[nH]2)cc1C` cannot be ordered by TGI: over 100 µM for the first, over 100 µM for the second.

First: O=C(CC1(O)C(=O)N(Cc2ccccc2)c2ccc(F)cc21)c1ccc(C(=O)NCC2CCC3(CC2)OOC2(CCCCC2)OO3)cc1 (stereo unspecified)
Second: O=C(CSc1nc2ccccc2nc1-c1ccccc1)Nc1ccc(F)cc1
The TGI of the first is lower: 0.441 µM for the first, over 100 µM for the second.

Compared with `COc1cc2c3c(n(C)c(=O)c2cc1OC)-c1cc2c(cc1/C3=C\CN)OCO2`, `COc1ccc(/C=C2/N=C(c3ccccc3)N(c3c(C)n(C)n(-c4ccccc4)c3=O)C2=O)cc1OC` is higher in TGI: 2.81 µM for the first, over 100 µM for the second.

`CCCc1nc(NC#N)nc(C(=O)Nc2ccccc2)c1CC` and `O=C(Nc1nc(=S)c2c(ncn2CCOC(=O)c2ccccc2)[nH]1)c1ccccc1` cannot be ordered by TGI: over 100 µM for the first, over 100 µM for the second.

`Cc1[nH]c2ccccc2c1C(=O)/C=C/c1ccccc1O` and `O=C1Nc2ccccc2/C1=N\[O-].O=C1Nc2ccccc2/C1=N\[O-].[Cu+2]` cannot be ordered by TGI: over 100 µM for the first, over 100 µM for the second.

Going from `COc1ccc2c(c1)C(=O)c1c-2c(N2CCN(C(=O)CNCCNCCO)CC2)nc2ccccc12` to `Cn1cc(-c2csc(-c3c[nH]c4ccc(F)cc34)n2)c2cnccc21`, the TGI falls from 24.3 µM to 3.42 µM (7.1-fold).

With `CCC[CH2][Sn]([Cl])([CH2]CCC)[CH2]CCC` the TGI was 0.32 µM.

First: COc1cc(F)ccc1-c1ncnc(Nc2cccc(CS(C)(=N)=O)c2)n1 (stereo unspecified)
Second: COc1cc(-n2cc(-c3ccc(F)cc3)[nH]c2=O)cc(OC)c1OC
The GI50 of the first is lower: 2.83 µM for the first, over 100 µM for the second.

Compared with `[Cl][Hg][c]1cc[c]([Hg][Cl])o1`, `Cn1cc(-c2csc(-c3c[nH]c4ccc(F)cc34)n2)c2cnccc21` is 12-fold lower in GI50: 21.9 µM for the first, 1.83 µM for the second.

First: O=C(CC1(O)C(=O)N(Cc2ccccc2)c2ccc(F)cc21)c1ccc(C(=O)NCC2CCC3(CC2)OOC2(CCCCC2)OO3)cc1 (stereo unspecified)
Second: O=C(CSc1nc2ccccc2nc1-c1ccccc1)Nc1ccc(F)cc1
The GI50 of the first is 240-fold lower: 0.207 µM for the first, 49.3 µM for the second.

First: COc1cc2c3c(n(C)c(=O)c2cc1OC)-c1cc2c(cc1/C3=C\CN)OCO2
Second: COc1ccc(/C=C2/N=C(c3ccccc3)N(c3c(C)n(C)n(-c4ccccc4)c3=O)C2=O)cc1OC
The GI50 of the first is lower: 0.273 µM for the first, over 100 µM for the second.

Going from `CCn1c2ccccc2c2cc(NC(=O)Nc3ccc([N+](=O)[O-])cc3C)ccc21` to `COc1ccc2c(c1)C(=O)c1c-2c(N2CCN(C(=O)CNCCNCCO)CC2)nc2ccccc12`, the GI50 rises from 3.01 µM to 7.1 µM (2.4-fold).

Going from `O=C1Nc2ccccc2/C1=N\[O-].O=C1Nc2ccccc2/C1=N\[O-].[Cu+2]` to `CCC[CH2][Sn]([Cl])([CH2]CCC)[CH2]CCC`, the GI50 falls from over 100 µM to 0.132 µM.

The molecules below were run on SNB-75 CNS (assay: growth of human tumour cells (NCI), 48 h).

Compared with `O=C(c1ccccc1)c1cc2ccccc2o1`, `O=C(N[C@@H](c1ccc(Cl)c(Cl)c1)C1CNC1)c1ccc2cnccc2c1` is lower in GI50: 63.2 µM for the first, under 0.0125 µM for the second.

Going from `O=C(Nc1ccncc1)C(=O)c1cn(S(=O)(=O)c2ccc(F)cc2)c2ccccc12` to `COc1cc(F)ccc1-c1ncnc(Nc2cccc(CS(C)(=N)=O)c2)n1` (stereo unspecified), the GI50 falls from 2.76 µM to 0.434 µM (6.4-fold).

First: C=C(C)[C@@H]1CC[C@]2(C)[C@H](CC=C3[C@@H]4CC(C)(C)CC[C@]4(C(N)=O)CC[C@]32C)[C@@]1(C)CCC#N
Second: [Cl][Hg][c]1cc[c]([Hg][Cl])o1
The GI50 of the first is 1.6-fold lower: 2.33 µM for the first, 3.78 µM for the second.

`O=C(c1ccccc1)c1cc2ccccc2o1` and `Cc1cc(Cl)ccc1NC(=O)C(=O)Cc1nc2ccccc2o1` cannot be ordered by TGI: over 100 µM for the first, over 100 µM for the second.

First: O=C(Nc1ccncc1)C(=O)c1cn(S(=O)(=O)c2ccc(F)cc2)c2ccccc12
Second: CCOc1ccc(NC(=O)C(=O)CC(=O)c2c(C)n([O-])c3ccccc3[n+]2=O)cc1
The TGI of the first is lower: 15.7 µM for the first, over 100 µM for the second.

Going from `C=C(C)[C@@H]1CC[C@]2(C)[C@H](CC=C3[C@@H]4CC(C)(C)CC[C@]4(C(N)=O)CC[C@]32C)[C@@]1(C)CCC#N` to `Cc1cc(N(CCC#N)CCC#N)ccc1N=Nc1ccc(C(=O)O)cc1`, the TGI rises from 9.71 µM to over 100 µM.

Going from `O=C(N[C@@H](c1ccc(Cl)c(Cl)c1)C1CNC1)c1ccc2cnccc2c1` to `COc1cc(F)ccc1-c1ncnc(Nc2cccc(CS(C)(=N)=O)c2)n1` (stereo unspecified), the TGI rises from 0.264 µM to 3.46 µM (13-fold).

`O=C1/C(=C/c2ccc3c(c2)OCO3)SC2C=Nc3ccccc3N12` (stereo unspecified) and `CCC(C)COC(=O)c1ccc(N=Cc2ccc(C=Nc3ccc(C(=O)OCC(C)CC)cc3)cc2)cc1` (stereo unspecified) cannot be ordered by TGI: over 100 µM for the first, over 100 µM for the second.

`[Cl][Hg][c]1cc[c]([Hg][Cl])o1` was tested, and the TGI was 19.6 µM.
